Values of other authors as cited in US20110038945A1, “Orally ingestable medicament and method for treating a heartburn inducing event or an acid reflux episode in a living human subject” (priority 2009, published 2011).

Compound: COc1cc(N)c(Cl)cc1C(=O)NC1CCN(CCCOc2ccc(F)cc2)CC1OC (centres unmarked) [cisapride]
- deaths (included in the heart rhythm abnormality reports): more than 80 deaths
- reports of heart rhythm abnormalities (linked to the drug at recall from the U.S. market in 2000): more than 300 reports
